For orientation: inhibition means the relative decrease from the control value, in per cent. A higher inhibition goes with strong suppression. The term % Inhibition denotes how much of the control response was suppressed. A lower % Inhibition goes with a response near the control.

For test [1], the system named is MPL^W515L mouse model of myelofibrosis. In words: MPL^W515L MF mouse model: tibia bone marrow ADC by diffusion-weighted MRI. The class given is in vivo. To be noted: MPL^W515L mice, oral 400 mg kg^−1 daily. On the procedure:
Generation of the MPL^W515L mutant MF mouse model was similar to previously described methods. Briefly, female donor BALB/c mice were treated with 5-fluorouracil at 150 mg kg^−1 intraperitoneal for 5 d before harvesting bone marrow. Hematopoietic stem and progenitor cells were enriched with CD117 magnetic beads (Miltenyi Biotec), transduced with retrovirus containing MSCV-hMPL W515L-IRES-GFP, then 50,000 transduced HSPCs along with 300,000 total non-stem cells were injected intravenously into lethally irradiated female BALB/c recipients. Development of MF was evaluated by spleen volumes using MRI beginning ~14 d following bone marrow transplantation (BMT) as outlined below, continuing weekly until end of the study. Mice were separated into equal groups based on spleen size ~14–21 d post-BMT, then treated with vehicle (Maisine CC) or LP-182 at 400 mg kg^−1 daily by oral gavage for 14–28 d or until mice were euthanized using guidelines for end stage illness and humane endpoints. Untreated healthy control animals were used for experimental comparisons. […] Soluble protein extracts were isolated by centrifugation at 15,000 x g for 15 min at 4 °C, quantified using Micro BCA protein assay (Thermo Scientific), then mixed with reducing 6X SDS-PAGE loading dye, heated for 8 min at 95 °C, and stored at −20 °C until immuno-blot analysis. […]

Test [2] concerns the target 321 human protein kinases (Homo sapiens, UniProt O60331). In words: Single-point broad panel kinome screening (SelectScreen Z'-LYTE and Adapta). The class given is biochemical. To be noted: PIP5K1C; […] LP-182; [ATP] 10 μM. On the procedure:
(§1) Quantitation of kinase inhibition was carried out by Life Technologies (Madison, WI) using the SelectScreen profiling platforms Z’-LYTE^TM and Adapta^TM. Single-point broad panel kinome screening was performed at 2.5 µM LP-182 against all kinases within the Z’-LYTE^TM and Adapta^TM assays (321 kinase isoforms, holoenzymes, or mutant variants). The average percent kinase inhibition from replicate data was ranked low to high, converted to a compatible identifier format, then input into Coral Human Kinome Visualization software for presentation analysis. […] Scaling of evolutionary distance for PI kinases is only relative and is based on literature analysis[62],[63]. Average percent kinome inhibition values from replicate data are supplied in Source Data file. […]. Corrected data was normalized to vehicle treated control values, and dose response percent kinase activity was analyzed by non-linear regression for determination of IC50 values.

Test [3] has as its target 321 human protein kinases (Homo sapiens, UniProt Q16539). The test is described as above. It is filed as biochemical. To be noted: MAPK14 (p38 alpha); […] LP-182; [ATP] 100 μM. On the procedure: as §1
Test [4] has as its target 321 human protein kinases (Homo sapiens, UniProt P52564). The test is described as above. The settings on record: MAP2K6 (MKK6); […] LP-182; [ATP] 100 μM. It is filed as biochemical. On the procedure: as §1
Test [5] concerns the target 321 human protein kinases (Homo sapiens, UniProt O15530). The test is described as above. To be noted: PDK1; […] LP-182; [ATP] 100 μM. The class given is biochemical. On the procedure: as §1
Test [6] concerns the target 321 human protein kinases (Homo sapiens, UniProt P45984). The description is as above. The class given is biochemical. To be noted: MAPK9 (JNK2); […] LP-182; [ATP] 100 μM. On the procedure:
as §1

Test [7] addresses 321 human protein kinases (Homo sapiens, UniProt O14986). The description is as above. The class given is biochemical. The settings on record: PIP5K1B; […] LP-182; [ATP] 10 μM. On the procedure:
as §1

Test [8] addresses 321 human protein kinases (Homo sapiens, UniProt Q99755). The description is as above. To be noted: PIP5K1A; […] LP-182; [ATP] 10 μM. The class given is biochemical. On the procedure: as §1
Test [9] deals with 321 human protein kinases (Homo sapiens, UniProt P42356). The test is described as above. To be noted: PI4KA (PI4K alpha); […] LP-182; [ATP] 10 μM. The class given is biochemical. On the procedure:
as §1

For test [10], the target named is 321 human protein kinases (Homo sapiens, UniProt P45983). Described as above. It is filed as biochemical. To be noted: MAPK8 (JNK1); […] LP-182; [ATP] 100 μM. On the procedure: as §1
Sequence of 321 human protein kinases (Homo sapiens, UniProt P45983) (P45983 whole entry): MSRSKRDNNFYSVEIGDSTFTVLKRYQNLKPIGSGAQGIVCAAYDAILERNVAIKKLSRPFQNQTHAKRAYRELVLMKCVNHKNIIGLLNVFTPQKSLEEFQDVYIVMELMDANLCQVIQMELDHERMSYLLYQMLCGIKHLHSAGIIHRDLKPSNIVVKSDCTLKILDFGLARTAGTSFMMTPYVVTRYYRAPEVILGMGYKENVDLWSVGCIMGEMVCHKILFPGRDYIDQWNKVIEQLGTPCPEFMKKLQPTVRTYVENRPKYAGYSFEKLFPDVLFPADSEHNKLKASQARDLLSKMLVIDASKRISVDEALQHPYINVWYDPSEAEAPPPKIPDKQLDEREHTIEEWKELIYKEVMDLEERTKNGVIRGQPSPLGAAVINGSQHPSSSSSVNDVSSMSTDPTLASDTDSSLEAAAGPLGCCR

Sequence of 321 human protein kinases (Homo sapiens, UniProt O14986) (O14986 whole entry): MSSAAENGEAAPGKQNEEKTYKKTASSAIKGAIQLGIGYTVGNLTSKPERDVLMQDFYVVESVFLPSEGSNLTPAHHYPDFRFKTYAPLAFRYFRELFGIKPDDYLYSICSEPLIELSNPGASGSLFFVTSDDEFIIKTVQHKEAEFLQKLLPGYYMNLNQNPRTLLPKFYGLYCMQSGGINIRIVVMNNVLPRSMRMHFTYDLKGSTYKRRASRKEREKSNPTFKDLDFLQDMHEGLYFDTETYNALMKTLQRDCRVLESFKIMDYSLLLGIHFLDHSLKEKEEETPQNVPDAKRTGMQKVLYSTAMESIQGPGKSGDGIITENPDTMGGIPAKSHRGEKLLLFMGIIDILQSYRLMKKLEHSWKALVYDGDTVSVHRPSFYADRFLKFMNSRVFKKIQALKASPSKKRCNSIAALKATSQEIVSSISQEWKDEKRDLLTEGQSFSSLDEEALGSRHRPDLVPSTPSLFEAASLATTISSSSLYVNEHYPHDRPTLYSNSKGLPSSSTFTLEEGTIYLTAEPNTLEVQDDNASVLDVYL
Sequence of 321 human protein kinases (Homo sapiens, UniProt P45984) (P45984 whole entry): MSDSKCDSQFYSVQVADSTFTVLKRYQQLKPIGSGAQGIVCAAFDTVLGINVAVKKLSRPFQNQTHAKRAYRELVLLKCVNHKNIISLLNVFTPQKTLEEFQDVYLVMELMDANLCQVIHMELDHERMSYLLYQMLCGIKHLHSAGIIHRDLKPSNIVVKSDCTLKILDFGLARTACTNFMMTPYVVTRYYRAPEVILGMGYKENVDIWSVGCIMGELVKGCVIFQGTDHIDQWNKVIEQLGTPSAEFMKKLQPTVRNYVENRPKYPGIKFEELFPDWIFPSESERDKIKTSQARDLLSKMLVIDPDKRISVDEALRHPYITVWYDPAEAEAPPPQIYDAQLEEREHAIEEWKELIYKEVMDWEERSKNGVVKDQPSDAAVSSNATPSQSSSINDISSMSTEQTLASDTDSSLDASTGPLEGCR
Sequence of 321 human protein kinases (Homo sapiens, UniProt Q99755) (Q99755 whole entry): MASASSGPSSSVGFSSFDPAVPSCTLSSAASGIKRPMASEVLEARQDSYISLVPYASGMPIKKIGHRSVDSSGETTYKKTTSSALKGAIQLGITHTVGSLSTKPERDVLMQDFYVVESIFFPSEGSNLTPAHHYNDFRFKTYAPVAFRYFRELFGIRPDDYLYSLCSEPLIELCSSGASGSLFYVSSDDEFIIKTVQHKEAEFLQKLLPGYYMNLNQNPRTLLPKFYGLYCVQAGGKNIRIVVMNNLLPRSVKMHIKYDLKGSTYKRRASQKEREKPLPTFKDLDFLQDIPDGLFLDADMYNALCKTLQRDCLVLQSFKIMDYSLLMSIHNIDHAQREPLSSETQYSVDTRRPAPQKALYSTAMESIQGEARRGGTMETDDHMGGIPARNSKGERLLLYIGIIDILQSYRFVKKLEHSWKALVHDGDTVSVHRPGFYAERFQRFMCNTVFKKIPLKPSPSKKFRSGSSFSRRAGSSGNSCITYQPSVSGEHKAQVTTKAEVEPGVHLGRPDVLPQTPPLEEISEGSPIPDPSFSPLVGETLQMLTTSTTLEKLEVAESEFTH
Sequence of 321 human protein kinases (Homo sapiens, UniProt P42356) (P42356 whole entry): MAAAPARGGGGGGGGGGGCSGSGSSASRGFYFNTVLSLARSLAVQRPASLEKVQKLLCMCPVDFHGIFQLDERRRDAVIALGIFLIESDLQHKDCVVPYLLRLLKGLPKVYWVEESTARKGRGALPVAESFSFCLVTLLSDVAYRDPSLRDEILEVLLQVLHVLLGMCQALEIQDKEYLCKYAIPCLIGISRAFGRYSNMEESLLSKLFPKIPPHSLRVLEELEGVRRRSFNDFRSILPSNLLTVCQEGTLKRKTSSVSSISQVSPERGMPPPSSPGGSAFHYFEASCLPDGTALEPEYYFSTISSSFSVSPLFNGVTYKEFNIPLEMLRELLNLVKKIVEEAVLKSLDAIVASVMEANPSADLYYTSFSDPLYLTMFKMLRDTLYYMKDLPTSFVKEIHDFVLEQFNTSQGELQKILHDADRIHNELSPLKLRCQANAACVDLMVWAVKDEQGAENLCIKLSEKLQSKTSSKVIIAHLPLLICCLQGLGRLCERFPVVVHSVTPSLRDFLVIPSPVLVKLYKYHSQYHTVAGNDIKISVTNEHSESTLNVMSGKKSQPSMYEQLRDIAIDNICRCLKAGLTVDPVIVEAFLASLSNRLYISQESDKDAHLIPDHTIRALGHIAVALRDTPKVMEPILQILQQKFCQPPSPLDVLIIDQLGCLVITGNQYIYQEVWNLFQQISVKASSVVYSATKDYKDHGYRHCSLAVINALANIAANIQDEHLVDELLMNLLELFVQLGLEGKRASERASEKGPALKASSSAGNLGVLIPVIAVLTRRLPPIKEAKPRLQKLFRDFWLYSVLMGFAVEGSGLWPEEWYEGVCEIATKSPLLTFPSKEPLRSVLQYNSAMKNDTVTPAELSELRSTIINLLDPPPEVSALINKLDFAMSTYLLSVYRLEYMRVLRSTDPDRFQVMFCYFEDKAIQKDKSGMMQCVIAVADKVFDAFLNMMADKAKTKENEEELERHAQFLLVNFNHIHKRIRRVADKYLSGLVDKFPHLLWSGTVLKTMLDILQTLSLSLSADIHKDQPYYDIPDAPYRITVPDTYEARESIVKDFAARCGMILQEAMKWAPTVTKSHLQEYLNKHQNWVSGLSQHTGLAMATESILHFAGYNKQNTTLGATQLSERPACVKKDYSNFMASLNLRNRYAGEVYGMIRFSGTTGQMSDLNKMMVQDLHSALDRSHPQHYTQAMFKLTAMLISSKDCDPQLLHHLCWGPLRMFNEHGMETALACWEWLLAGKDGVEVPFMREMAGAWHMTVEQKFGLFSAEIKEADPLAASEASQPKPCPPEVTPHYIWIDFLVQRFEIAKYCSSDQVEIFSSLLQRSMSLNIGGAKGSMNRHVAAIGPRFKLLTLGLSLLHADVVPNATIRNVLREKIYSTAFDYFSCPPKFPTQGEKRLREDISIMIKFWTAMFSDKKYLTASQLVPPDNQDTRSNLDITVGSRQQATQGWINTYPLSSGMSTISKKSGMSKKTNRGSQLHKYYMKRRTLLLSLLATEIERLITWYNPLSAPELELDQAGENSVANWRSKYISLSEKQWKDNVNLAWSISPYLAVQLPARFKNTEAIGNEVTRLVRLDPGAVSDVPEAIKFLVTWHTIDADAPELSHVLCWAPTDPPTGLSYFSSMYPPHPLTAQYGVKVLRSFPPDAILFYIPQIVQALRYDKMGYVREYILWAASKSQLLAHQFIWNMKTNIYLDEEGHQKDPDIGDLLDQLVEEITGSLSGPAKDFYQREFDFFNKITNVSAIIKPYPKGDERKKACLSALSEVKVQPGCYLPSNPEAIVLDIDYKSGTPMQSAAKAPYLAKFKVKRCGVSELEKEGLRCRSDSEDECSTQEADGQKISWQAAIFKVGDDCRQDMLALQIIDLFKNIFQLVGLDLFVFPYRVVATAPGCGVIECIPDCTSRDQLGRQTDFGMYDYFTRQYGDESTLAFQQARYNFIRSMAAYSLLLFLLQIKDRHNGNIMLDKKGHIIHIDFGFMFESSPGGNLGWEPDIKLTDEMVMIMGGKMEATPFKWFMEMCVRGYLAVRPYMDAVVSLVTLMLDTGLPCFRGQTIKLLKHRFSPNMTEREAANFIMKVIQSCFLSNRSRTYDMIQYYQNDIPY
Sequence of 321 human protein kinases (Homo sapiens, UniProt O15530) (O15530 whole entry): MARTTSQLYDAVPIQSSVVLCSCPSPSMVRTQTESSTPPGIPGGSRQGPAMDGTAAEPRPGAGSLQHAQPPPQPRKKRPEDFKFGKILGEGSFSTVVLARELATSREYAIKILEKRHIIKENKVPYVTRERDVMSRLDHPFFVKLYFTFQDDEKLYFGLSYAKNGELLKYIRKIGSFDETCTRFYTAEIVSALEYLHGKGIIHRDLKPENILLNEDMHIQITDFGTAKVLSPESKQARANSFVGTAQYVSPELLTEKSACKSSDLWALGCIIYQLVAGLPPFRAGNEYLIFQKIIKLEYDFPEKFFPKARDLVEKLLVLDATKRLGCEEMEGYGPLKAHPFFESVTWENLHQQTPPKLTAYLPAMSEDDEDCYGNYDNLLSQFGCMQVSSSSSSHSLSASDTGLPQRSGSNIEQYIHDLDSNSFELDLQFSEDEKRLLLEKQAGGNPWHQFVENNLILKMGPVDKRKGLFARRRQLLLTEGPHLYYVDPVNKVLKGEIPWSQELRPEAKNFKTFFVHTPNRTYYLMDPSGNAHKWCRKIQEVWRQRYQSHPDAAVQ
Sequence of 321 human protein kinases (Homo sapiens, UniProt P52564) (P52564 whole entry): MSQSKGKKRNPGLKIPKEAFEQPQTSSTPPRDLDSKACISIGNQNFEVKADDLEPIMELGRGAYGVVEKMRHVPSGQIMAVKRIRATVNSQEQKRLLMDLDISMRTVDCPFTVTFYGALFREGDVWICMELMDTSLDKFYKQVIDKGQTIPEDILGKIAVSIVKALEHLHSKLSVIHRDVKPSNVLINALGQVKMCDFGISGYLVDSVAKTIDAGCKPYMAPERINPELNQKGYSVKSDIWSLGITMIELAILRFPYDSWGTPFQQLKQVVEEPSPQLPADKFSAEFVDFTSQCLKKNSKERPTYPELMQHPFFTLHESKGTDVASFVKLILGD

Regarding `O=C(NOCCOCCOCCOCCC(=O)N1CCN(c2cnc3ccc(-c4cnc(Cl)c(NS(=O)(=O)c5ccc(F)cc5)c4)cc3n2)CC1)c1ccc(F)c(F)c1Nc1ccc(I)cc1F` [LP-182, N-(2-(2-(2-(3-(4-(7-(6-chloro-5-((4-fluorophenyl)sulfonamido)pyridin-3-yl)quinoxalin-2-yl)piperazin-1-yl)-3-oxopropoxy)ethoxy)ethoxy)ethoxy)-3,4-difluoro-2-((2-fluoro-4-iodophenyl)amino)benzamide], the “tibia bone marrow ADC change” value in test [1] is recorded as “variable, spatially-dependent increase in ADC values”. The inhibition at […] in test [2] is 28%; in test [3] it was 22%; in [4], 16%; in test [5], 15%; in test [6], 2.22%; in test [7] it was 13%. Moreover, the inhibition at […] in test [8] was 26%; in test [9], 24%; in [10] it was 15%. Also, the “% Inhibition” value in test [7] was found to be 14%.

The record behind these values is PMC9386018, “A lymphatic-absorbed multi-targeted kinase inhibitor for myelofibrosis therapy” (Nature Communications, 2022).
